Laboratory results as given in US8168197B2, “External composition for skin containing Scrophularia buergeriana miq. extract and the use thereof for the skin moisturizing cosmetics” (Amorepacific Corporation, priority 2007, dated 2012).

Tested on: human skin
Assay: Production of epidermal lipid (total ceramide) on human skin
Format: in vivo
Conditions: 5% test material, 20 μl on human forearm
Description: In order to evaluate the effects of the Scrophularia buergeriana Miq. and Poria cocos Wolf extracts on an increase in the synthesis of lipid on the human skin, the following test was carried out. The composition of the test material consisted of 0.5% of Carbopol ETD 2020, 0.45% of TEA 0.45%, 5% test material and the balance of deionized water. On the forearm of each of 12 adult men and women, a region having a size corresponding to the size of a 50-ml polypropylene conical tube was marked, and then 20 μl of each of control groups, the Scrophularia buergeriana Miq. extract and the Scrophularia buergeriana Miq. extract/Poria cocos Wolf extract mixture was applied on the subjects. Herein, the subjects were divided into two groups, lipids were extracted from the subjects at day 3 and day 11 in the following manner, and the extracted lipid were analyzed. Specifically, the forearm was washed with service water, and then subjected to tape stripping one time with Scotch® 810 Magic tape. Then, 1 ml of a mixture of cyclohexane/ethanol (4:1) was added to the forearm using a 50-ml cut polypropylene conical tube as a reservoir and shaken for about 1 minute, and was then transferred into a fresh tube. […]
After the TLC plate was developed, the size of each band was measured at a wavelength of 570 nm using a TLC Scanner-II densitometer (CAMAG). […]

SMILES: OCC(O)CO [Glycerin]
- production of ceramide relative to the untreated group taken as 100%, 3 days after treatment (3 days after treatment): 102%
- production of ceramide relative to the untreated group taken as 100%, 11 days after treatment (11 days after treatment): 94%
